pIC50: −log10 of the molar value. Like-named read-outs stand apart in the source and are kept apart here.
Columns and labels:
human Gal-1 (hGal-1) = human Gal-1 (hGal-1) (Homo sapiens (Human), UniProt P09382); assay: competitive binding assay: biotinylated hGal-1 binding to microplate-adsorbed asialofetuin (ASF); conditions: Table 15; read-out: IC50 (Galectin-1 inhibition)
Method in brief: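 Spectrophotometric competition readout: after compound and biotinylated hGal-1 (300-1000 ng/mL) sit 3 h at 4° C on adsorbed asialofetuin, streptavidin-peroxidase (1 h, 4° C) and ABTS reveal residual binding. Reported IC50 values are means of repeat runs.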

human Gal-3 (hGal-3) = human Gal-3 (hGal-3) (Homo sapiens (Human), UniProt P17931); assay: competitive binding assay: biotinylated hGal-3 binding to microplate-adsorbed asialofetuin (ASF)
Method in brief: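 Serially diluted compounds compete with biotinylated hGal-3 binding to adsorbed asialofetuin (3 hours, 4° C). After washing, streptavidin-peroxidase at 80 ng/mL for 1 hour at 4° C, with ABTS colour read-out. IC50 values are averaged over repeated runs.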

[1] = Table 10, 2-OMe-Gal inhibitors, read-out: IC50 (Gal-3 inhibition)
[2] = Gal-3 inhibition, binding of biotinylated hGal-3 to ASF, mean values, read-out: IC50
[3] = Table 9, 2-OMe-Gal inhibitors, read-out: IC50 (Gal-3 inhibition)

Chain of human Gal-3 (hGal-3) (P17931 whole entry): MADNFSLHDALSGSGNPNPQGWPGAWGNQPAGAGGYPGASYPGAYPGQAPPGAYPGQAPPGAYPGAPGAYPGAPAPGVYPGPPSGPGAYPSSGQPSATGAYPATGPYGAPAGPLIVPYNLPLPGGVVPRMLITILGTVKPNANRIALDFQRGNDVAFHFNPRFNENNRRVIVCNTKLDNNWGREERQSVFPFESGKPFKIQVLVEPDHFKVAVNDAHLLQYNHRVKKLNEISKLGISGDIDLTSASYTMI
Chain of human Gal-1 (hGal-1) (P09382 whole entry): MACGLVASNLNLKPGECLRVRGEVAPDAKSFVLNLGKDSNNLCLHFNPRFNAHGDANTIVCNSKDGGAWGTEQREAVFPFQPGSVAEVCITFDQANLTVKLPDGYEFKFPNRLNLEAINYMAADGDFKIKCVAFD

Row | Structure (SMILES) | pIC50 (human Gal-1 (hGal-1)) | pIC50 (human Gal-3 (hGal-3); [1]) | pIC50 (human Gal-3 (hGal-3); [2]) | pIC50 (human Gal-3 (hGal-3); [3])
1 | CO[C@@H]1[C@@H](n2cc(-c3cc(F)c(F)c(F)c3)nn2)[C@@H](O)[C@@H](CO)O[C@H]1S[C@H](c1nccnc1Cl)C1(O)CCC(F)(F)CC1 [Example 2.44.133R.I., (2R,3R,4S,5R,6S)-6-(((R)-(3-Chloropyrazin-2-yl)(4,4-difluoro-1-hydroxycyclohexyl)methyl)thio)-2-(hydroxymethyl)-5-methoxy-4-(4-(3,4,5-trifluorophenyl)-1H-1,2,3-triazol-1-yl)tetrahydro-2H-pyran-3-ol [1,3-di-deoxy-1-((4,4-difluoro-1-hydroxy-cyclohexan-1-yl)-(3-(-chloro)pyrazin-2-yl)methyl-(R)-thio)-2-O-methyl-3-[4-(3,4,5-trifluorophenyl)-1H-1,2,3-triazol-1-yl]-b-D-galactopyranoside]] | 6.18 | 7.40 |  | 
2 | OC[C@H]1O[C@@H](S[C@@H](c2nccnc2Cl)C2(O)CCC(F)(F)CC2)[C@H](O)[C@@H](n2cc(-c3cc(F)c(F)c(F)c3)nn2)[C@H]1O [Example 2.44.133S., (2S,3R,4S,5R,6R)-2-(((S)-(3-Chloropyrazin-2-yl)(4,4-difluoro-1-hydroxycyclohexyl)methyl)thio)-6-(hydroxymethyl)-4-(4-(3,4,5-trifluorophenyl)-1H-1,2,3-triazol-1-yl)tetrahydro-2H-pyran-3,5-diol] | 4.80 |  | 5.74 | 
3 | CO[C@@H]1[C@@H](n2cc(-c3cc(F)c(F)c(F)c3)nn2)[C@@H](O)[C@@H](CO)O[C@H]1S[C@@H](c1nccnc1Cl)C1(O)CCC(F)(F)CC1 [Example 2.44.133S.I., (2R,3R,4S,5R,6S)-6-(((S)-(3-Chloropyrazin-2-yl)(4,4-difluoro-1-hydroxycyclohexyl)methyl)thio)-2-(hydroxymethyl)-5-methoxy-4-(4-(3,4,5-trifluorophenyl)-1H-1,2,3-triazol-1-yl)tetrahydro-2H-pyran-3-ol] | 5.12 | 5.57 |  | 
4 | OC[C@H]1O[C@@H](SC(c2ncccc2C2CC2)C2(O)CCC(F)(F)CC2)[C@H](O)[C@@H](n2cc(-c3cc(F)c(F)c(F)c3)nn2)[C@H]1O (stereo partly drawn) [Example 2.44.134., (2S,3R,4S,5R,6R)-2-(((3-Cyclopropylpyridin-2-yl)(4,4-difluoro-1-hydroxycyclohexyl)methyl)thio)-6-(hydroxymethyl)-4-(4-(3,4,5-trifluorophenyl)-1H-1,2,3-triazol-1-yl)tetrahydro-2H-pyran-3,5-diol] | 6.85 |  | 7.15 | 
5 | OC[C@H]1O[C@@H](S[C@H](c2ncccc2C2CC2)C2(O)CCC(F)(F)CC2)[C@H](O)[C@@H](n2cc(-c3cc(F)c(F)c(F)c3)nn2)[C@H]1O [Example 2.44.134R., (2S,3R,4S,5R,6R)-2-(((R)-(3-Cyclopropylpyridin-2-yl)(4,4-difluoro-1-hydroxycyclohexyl)methyl)thio)-6-(hydroxymethyl)-4-(4-(3,4,5-trifluorophenyl)-1H-1,2,3-triazol-1-yl)tetrahydro-2H-pyran-3,5-diol] | 7.30 |  | 8.00 | 
6 | CO[C@@H]1[C@@H](n2cc(-c3cc(F)c(F)c(F)c3)nn2)[C@@H](O)[C@@H](CO)O[C@H]1S[C@H](c1ncccc1C1CC1)C1(O)CCC(F)(F)CC1 [Example 2.44.134R.I., (2R,3R,4S,5R,6S)-6-(((R)-(3-Cyclopropylpyridin-2-yl)(4,4-difluoro-1-hydroxycyclohexyl)methyl)thio)-2-(hydroxymethyl)-5-methoxy-4-(4-(3,4,5-trifluorophenyl)-1H-1,2,3-triazol-1-yl)tetrahydro-2H-pyran-3-ol [1,3-di-deoxy-1-((4,4-difluoro-1-hydroxy-cyclohexan-1-yl)-(3-(-cyclopropyl)pyridin-2-yl)methyl-(R)-thio)-2-O-methyl-3-[4-(3,4,5-trifluorophenyl)-1H-1,2,3-triazol-1-yl]-b-D-galactopyranoside]] | 6.96 |  |  | 7.22
7 | OC[C@H]1O[C@@H](S[C@@H](c2ncccc2C2CC2)C2(O)CCC(F)(F)CC2)[C@H](O)[C@@H](n2cc(-c3cc(F)c(F)c(F)c3)nn2)[C@H]1O [Example 2.44.134S., (2S,3R,4S,5R,6R)-2-(((S)-(3-Cyclopropylpyridin-2-yl)(4,4-difluoro-1-hydroxycyclohexyl)methyl)thio)-6-(hydroxymethyl)-4-(4-(3,4,5-trifluorophenyl)-1H-1,2,3-triazol-1-yl)tetrahydro-2H-pyran-3,5-diol] | 5.57 |  | 6.15 | 
8 | Cc1ccnnc1C(S[C@@H]1O[C@H](CO)[C@H](O)[C@H](n2cc(-c3cc(F)c(F)c(F)c3)nn2)[C@H]1O)C1(O)CCC(F)(F)CC1 (stereo partly drawn) [Example 2.44.135., (2S,3R,4S,5R,6R)-2-(((4,4-Difluoro-1-hydroxycyclohexyl)(4-methylpyridazin-3-yl)methyl)thio)-6-(hydroxymethyl)-4-(4-(3,4,5-trifluorophenyl)-1H-1,2,3-triazol-1-yl)tetrahydro-2H-pyran-3,5-diol] | 6.35 |  | 7.15 | 
9 | Cc1ccnnc1[C@@H](S[C@@H]1O[C@H](CO)[C@H](O)[C@H](n2cc(-c3cc(F)c(F)c(F)c3)nn2)[C@H]1O)C1(O)CCC(F)(F)CC1 [Example 2.44.135R., (2S,3R,4S,5R,6R)-2-(((R)-(4,4-Difluoro-1-hydroxycyclohexyl)(4-methylpyridazin-3-yl)methyl)thio)-6-(hydroxymethyl)-4-(4-(3,4,5-trifluorophenyl)-1H-1,2,3-triazol-1-yl)tetrahydro-2H-pyran-3,5-diol] | 6.66 |  | 7.40 | 
10 | CO[C@@H]1[C@@H](n2cc(-c3cc(F)c(F)c(F)c3)nn2)[C@@H](O)[C@@H](CO)O[C@H]1S[C@H](c1nnccc1C)C1(O)CCC(F)(F)CC1 [Example 2.44.135R.I., (2R,3R,4S,5R,6S)-6-(((R)-(4,4-Difluoro-1-hydroxycyclohexyl)(4-methylpyridazin-3-yl)methyl)thio)-2-(hydroxymethyl)-5-methoxy-4-(4-(3,4,5-trifluorophenyl)-1H-1,2,3-triazol-1-yl)tetrahydro-2H-pyran-3-ol] | 6.70 |  |  | 7.15
11 | Cc1ccnnc1[C@H](S[C@@H]1O[C@H](CO)[C@H](O)[C@H](n2cc(-c3cc(F)c(F)c(F)c3)nn2)[C@H]1O)C1(O)CCC(F)(F)CC1 [Example 2.44.135S., (2S,3R,4S,5R,6R)-2-(((S)-(4,4-Difluoro-1-hydroxycyclohexyl)(4-methylpyridazin-3-yl)methyl)thio)-6-(hydroxymethyl)-4-(4-(3,4,5-trifluorophenyl)-1H-1,2,3-triazol-1-yl)tetrahydro-2H-pyran-3,5-diol] | 5.27 |  | 5.55 | 
12 | CO[C@@H]1[C@@H](n2cc(-c3cc(F)c(F)c(F)c3)nn2)[C@@H](O)[C@@H](CO)O[C@H]1SC(c1c(C)cnn1C)C1(O)CCC(F)(F)CC1 (stereo partly drawn) [Example 2.44.136.I., (2R,3R,4S,5R,6S)-6-(((4,4-Difluoro-1-hydroxycyclohexyl)(1,4-dimethyl-1H-pyrazol-5-yl)methyl)thio)-2-(hydroxymethyl)-5-methoxy-4-(4-(3,4,5-trifluorophenyl)-1H-1,2,3-triazol-1-yl)tetrahydro-2H-pyran-3-ol] | 5.60 | 6.38 |  | 
13 | CO[C@@H]1[C@@H](n2cc(-c3cc(F)c(F)c(F)c3)nn2)[C@@H](O)[C@@H](CO)O[C@H]1S[C@H](c1c(C)cnn1C)C1(O)CCC(F)(F)CC1 [Example 2.44.136R.I., (2R,3R,4S,5R,6S)-6-(((R)-(4,4-Difluoro-1-hydroxycyclohexyl)(1,4-dimethyl-1H-pyrazol-5-yl)methyl)thio)-2-(hydroxymethyl)-5-methoxy-4-(4-(3,4,5-trifluorophenyl)-1H-1,2,3-triazol-1-yl)tetrahydro-2H-pyran-3-ol] | 5.72 | 6.59 |  | 
14 | CO[C@@H]1[C@@H](n2cc(-c3cc(F)c(F)c(F)c3)nn2)[C@@H](O)[C@@H](CO)O[C@H]1S[C@@H](c1c(C)cnn1C)C1(O)CCC(F)(F)CC1 [Example 2.44.136S.I., (2R,3R,4S,5R,6S)-6-(((S)-(4,4-Difluoro-1-hydroxycyclohexyl)(1,4-dimethyl-1H-pyrazol-5-yl)methyl)thio)-2-(hydroxymethyl)-5-methoxy-4-(4-(3,4,5-trifluorophenyl)-1H-1,2,3-triazol-1-yl)tetrahydro-2H-pyran-3-ol] | < 4.00 | 4.81 |  | 
15 | CO[C@@H]1[C@@H](n2cc(-c3cc(F)c(F)c(F)c3)nn2)[C@@H](O)[C@@H](CO)O[C@H]1SC(c1ncccc1Cl)C1(O)CCC(F)(F)CC1 (stereo partly drawn) [Example 2.44.137.I., (2R,3R,4S,5R,6S)-6-(((3-Chloropyridin-2-yl)(4,4-difluoro-1-hydroxycyclohexyl)methyl)thio)-2-(hydroxymethyl)-5-methoxy-4-(4-(3,4,5-trifluorophenyl)-1H-1,2,3-triazol-1-yl)tetrahydro-2H-pyran-3-ol] | 5.36 |  |  | 6.85
16 | CO[C@@H]1[C@@H](n2cc(-c3cc(F)c(F)c(F)c3)nn2)[C@@H](O)[C@@H](CO)O[C@H]1S[C@H](c1ncccc1Cl)C1(O)CCC(F)(F)CC1 [Example 2.44.137R.I., (2R,3R,4S,5R,6S)-6-(((R)-(3-Chloropyridin-2-yl)(4,4-difluoro-1-hydroxycyclohexyl)methyl)thio)-2-(hydroxymethyl)-5-methoxy-4-(4-(3,4,5-trifluorophenyl)-1H-1,2,3-triazol-1-yl)tetrahydro-2H-pyran-3-ol] | 6.14 |  |  | 7.15

From patent publication US12404295B2, “(Hetero)aryl-methyl-thio-beta-D-galactopyranoside derivatives” (Idorsia Pharmaceuticals Ltd, priority 2019, dated 2025)
